Measurements as given in ChEMBL document CHEMBL4507281, “Data for DCP probe BI-4394” (2021).

Tests used:
[1] = molecular target: Casein kinase I isoform delta (Homo sapiens) (UniProt P48730); conditions: Compound concentration 100.0 nM
[2] = molecular target: Non-receptor tyrosine-protein kinase TYK2 (Homo sapiens) (UniProt P29597); conditions: Compound concentration 100.0 nM
[3] = molecular target: Tyrosine-protein kinase receptor TYRO3 (Homo sapiens) (UniProt Q06418); conditions: Compound concentration 100.0 nM
[4] = molecular target: SRSF protein kinase 2 (Homo sapiens) (UniProt P78362); conditions: Compound concentration 100.0 nM
[5] = molecular target: Ribosomal protein S6 kinase beta-1 (Homo sapiens) (UniProt P23443); conditions: Compound concentration 100.0 nM
[6] = molecular target: Glycogen synthase kinase-3 beta (Homo sapiens) (UniProt P49841); conditions: Compound concentration 100.0 nM
[7] = molecular target: Serine/threonine-protein kinase 3 (Homo sapiens) (UniProt Q13188); conditions: Compound concentration 100.0 nM
[8] = molecular target: Myotonin-protein kinase (Homo sapiens) (UniProt Q09013); conditions: Compound concentration 100.0 nM
[9] = molecular target: Tyrosine-protein kinase Yes (Homo sapiens) (UniProt P07947); conditions: Compound concentration 100.0 nM
[10] = molecular target: Serine/threonine-protein kinase WNK3 (Homo sapiens) (UniProt Q9BYP7); conditions: Compound concentration 100.0 nM
[11] = molecular target: Serine/threonine-protein kinase PAK 2 (Homo sapiens) (UniProt Q13177); conditions: Compound concentration 100.0 nM
[12] = test system: Tyrosine-protein kinase ABL1 (Homo sapiens), P00519 [Q252H]; conditions: Compound concentration 100.0 nM
[13] = molecular target: Macrophage colony-stimulating factor 1 receptor (Homo sapiens) (UniProt P07333); conditions: Compound concentration 100.0 nM
[14] = molecular target: Serine/threonine-protein kinase TAO1 (Homo sapiens) (UniProt Q7L7X3); conditions: Compound concentration 100.0 nM
[15] = molecular target: 5'-AMP-activated protein kinase catalytic subunit alpha-2 (Homo sapiens) (UniProt P54646); conditions: Compound concentration 100.0 nM
[16] = molecular target: MAP/microtubule affinity-regulating kinase 4 (Homo sapiens) (UniProt Q96L34); conditions: Compound concentration 100.0 nM
[17] = molecular target: Dual specificity protein kinase CLK2 (Homo sapiens) (UniProt P49760); conditions: Compound concentration 100.0 nM
[18] = molecular target: Serine/threonine-protein kinase BRSK2 (Homo sapiens) (UniProt Q8IWQ3); conditions: Compound concentration 100.0 nM
Chain of Serine/threonine-protein kinase BRSK2 (Homo sapiens) (Q8IWQ3 whole entry): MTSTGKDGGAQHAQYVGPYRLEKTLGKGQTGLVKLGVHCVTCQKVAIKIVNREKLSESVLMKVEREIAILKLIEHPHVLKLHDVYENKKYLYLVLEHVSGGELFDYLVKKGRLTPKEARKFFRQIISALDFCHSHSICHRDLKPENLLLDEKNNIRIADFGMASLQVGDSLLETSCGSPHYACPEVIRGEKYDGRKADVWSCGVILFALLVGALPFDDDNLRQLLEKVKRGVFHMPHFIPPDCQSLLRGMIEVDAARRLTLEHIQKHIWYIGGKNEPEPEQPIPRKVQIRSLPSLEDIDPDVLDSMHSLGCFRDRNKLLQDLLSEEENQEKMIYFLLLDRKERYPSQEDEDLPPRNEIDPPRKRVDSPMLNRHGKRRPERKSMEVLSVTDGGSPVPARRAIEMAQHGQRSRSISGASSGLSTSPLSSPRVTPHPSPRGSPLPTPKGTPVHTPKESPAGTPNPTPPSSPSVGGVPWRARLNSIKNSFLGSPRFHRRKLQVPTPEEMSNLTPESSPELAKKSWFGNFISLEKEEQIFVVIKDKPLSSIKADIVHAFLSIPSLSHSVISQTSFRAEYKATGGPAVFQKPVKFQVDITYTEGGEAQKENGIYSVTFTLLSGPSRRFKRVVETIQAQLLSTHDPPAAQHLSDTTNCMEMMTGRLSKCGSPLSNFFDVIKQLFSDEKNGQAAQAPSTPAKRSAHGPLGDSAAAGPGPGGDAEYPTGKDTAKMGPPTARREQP

[19] = molecular target: Serine/threonine-protein kinase MRCK beta (Homo sapiens) (UniProt Q9Y5S2); conditions: Compound concentration 100.0 nM
[20] = molecular target: Ribosomal protein S6 kinase alpha-4 (Homo sapiens) (UniProt O75676); conditions: Compound concentration 100.0 nM
[21] = molecular target: Citron Rho-interacting kinase (Homo sapiens) (UniProt O14578); conditions: Compound concentration 100.0 nM
Chain of Citron Rho-interacting kinase (Homo sapiens) (O14578 whole entry): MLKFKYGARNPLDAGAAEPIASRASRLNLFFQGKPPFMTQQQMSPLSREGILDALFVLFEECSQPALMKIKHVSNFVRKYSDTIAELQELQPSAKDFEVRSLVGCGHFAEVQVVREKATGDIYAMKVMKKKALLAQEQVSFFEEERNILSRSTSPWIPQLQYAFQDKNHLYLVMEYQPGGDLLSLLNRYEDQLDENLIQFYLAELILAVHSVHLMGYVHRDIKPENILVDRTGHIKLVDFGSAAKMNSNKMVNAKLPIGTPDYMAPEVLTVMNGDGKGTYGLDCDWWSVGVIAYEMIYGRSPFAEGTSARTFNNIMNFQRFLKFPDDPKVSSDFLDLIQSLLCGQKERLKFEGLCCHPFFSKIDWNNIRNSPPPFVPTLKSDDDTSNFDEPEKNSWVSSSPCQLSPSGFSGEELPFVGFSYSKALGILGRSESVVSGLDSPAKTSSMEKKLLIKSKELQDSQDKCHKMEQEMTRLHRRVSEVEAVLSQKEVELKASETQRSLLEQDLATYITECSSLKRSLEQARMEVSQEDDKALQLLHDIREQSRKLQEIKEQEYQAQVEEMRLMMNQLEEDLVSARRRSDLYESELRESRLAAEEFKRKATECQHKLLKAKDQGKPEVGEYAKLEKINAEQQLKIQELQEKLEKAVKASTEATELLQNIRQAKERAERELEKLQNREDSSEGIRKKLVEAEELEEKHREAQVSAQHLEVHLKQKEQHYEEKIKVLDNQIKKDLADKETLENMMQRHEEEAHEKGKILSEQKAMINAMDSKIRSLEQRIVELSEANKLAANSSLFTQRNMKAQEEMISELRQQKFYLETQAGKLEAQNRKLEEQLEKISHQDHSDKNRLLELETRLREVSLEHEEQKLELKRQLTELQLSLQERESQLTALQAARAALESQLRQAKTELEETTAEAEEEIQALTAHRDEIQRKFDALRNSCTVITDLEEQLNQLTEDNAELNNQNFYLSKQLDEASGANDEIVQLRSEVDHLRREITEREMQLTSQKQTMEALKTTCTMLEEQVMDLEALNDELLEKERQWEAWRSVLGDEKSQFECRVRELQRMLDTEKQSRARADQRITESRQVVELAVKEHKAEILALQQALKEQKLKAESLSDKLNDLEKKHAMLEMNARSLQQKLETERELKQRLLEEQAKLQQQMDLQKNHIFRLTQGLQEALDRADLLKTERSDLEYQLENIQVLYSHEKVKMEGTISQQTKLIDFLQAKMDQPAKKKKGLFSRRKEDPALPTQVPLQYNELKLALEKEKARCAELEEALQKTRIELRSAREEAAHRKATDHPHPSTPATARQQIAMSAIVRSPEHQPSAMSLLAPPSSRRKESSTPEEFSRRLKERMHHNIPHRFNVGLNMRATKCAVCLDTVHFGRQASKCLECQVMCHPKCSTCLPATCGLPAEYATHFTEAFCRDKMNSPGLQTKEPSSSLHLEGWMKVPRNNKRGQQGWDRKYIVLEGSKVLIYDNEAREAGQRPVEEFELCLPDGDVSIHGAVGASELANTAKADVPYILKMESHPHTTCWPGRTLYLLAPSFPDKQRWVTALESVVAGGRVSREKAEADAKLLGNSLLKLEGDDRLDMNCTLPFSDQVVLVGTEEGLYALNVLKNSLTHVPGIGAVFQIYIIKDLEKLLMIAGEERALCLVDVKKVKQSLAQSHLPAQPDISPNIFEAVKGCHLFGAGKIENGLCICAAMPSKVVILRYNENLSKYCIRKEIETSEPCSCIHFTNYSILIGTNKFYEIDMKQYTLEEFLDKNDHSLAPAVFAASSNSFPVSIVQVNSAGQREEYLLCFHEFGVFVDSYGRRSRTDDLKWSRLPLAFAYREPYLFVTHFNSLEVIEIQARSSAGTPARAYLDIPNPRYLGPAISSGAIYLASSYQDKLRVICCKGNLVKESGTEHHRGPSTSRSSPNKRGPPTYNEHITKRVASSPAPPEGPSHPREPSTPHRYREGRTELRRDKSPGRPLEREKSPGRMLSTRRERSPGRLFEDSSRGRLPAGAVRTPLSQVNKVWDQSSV

[22] = molecular target: Serine/threonine-protein kinase PknB (Mycobacterium tuberculosis) (UniProt P9WI81); conditions: Compound concentration 100.0 nM
[23] = molecular target: Cyclin-dependent kinase 2 homolog (Plasmodium falciparum (isolate 3D7)) (UniProt P61075); conditions: Compound concentration 100.0 nM
[24] = molecular target: Casein kinase I isoform gamma-3 (Homo sapiens) (UniProt Q9Y6M4); conditions: Compound concentration 100.0 nM
[25] = test system: Proto-oncogene tyrosine-protein kinase receptor Ret (Homo sapiens), P07949 [V804L]; conditions: Compound concentration 100.0 nM
[26] = molecular target: Non-receptor tyrosine-protein kinase TNK1 (Homo sapiens) (UniProt Q13470); conditions: Compound concentration 100.0 nM
[27] = molecular target: Leukocyte tyrosine kinase receptor (Homo sapiens) (UniProt P29376); conditions: Compound concentration 100.0 nM
[28] = molecular target: Insulin-like growth factor 1 receptor (Homo sapiens) (UniProt P08069); conditions: Compound concentration 100.0 nM
[29] = molecular target: Mast/stem cell growth factor receptor Kit (Homo sapiens) (UniProt P10721); conditions: Compound concentration 100.0 nM
[30] = molecular target: Mitogen-activated protein kinase 6 (Homo sapiens) (UniProt Q16659); conditions: Compound concentration 100.0 nM
[31] = molecular target: Phosphatidylinositol 4-phosphate 3-kinase C2 domain-containing subunit beta (Homo sapiens) (UniProt O00750); conditions: Compound concentration 100.0 nM
[32] = molecular target: Insulin receptor-related protein (Homo sapiens) (UniProt P14616); conditions: Compound concentration 100.0 nM
Chain of Insulin receptor-related protein (Homo sapiens) (P14616 27-742 limits assumed): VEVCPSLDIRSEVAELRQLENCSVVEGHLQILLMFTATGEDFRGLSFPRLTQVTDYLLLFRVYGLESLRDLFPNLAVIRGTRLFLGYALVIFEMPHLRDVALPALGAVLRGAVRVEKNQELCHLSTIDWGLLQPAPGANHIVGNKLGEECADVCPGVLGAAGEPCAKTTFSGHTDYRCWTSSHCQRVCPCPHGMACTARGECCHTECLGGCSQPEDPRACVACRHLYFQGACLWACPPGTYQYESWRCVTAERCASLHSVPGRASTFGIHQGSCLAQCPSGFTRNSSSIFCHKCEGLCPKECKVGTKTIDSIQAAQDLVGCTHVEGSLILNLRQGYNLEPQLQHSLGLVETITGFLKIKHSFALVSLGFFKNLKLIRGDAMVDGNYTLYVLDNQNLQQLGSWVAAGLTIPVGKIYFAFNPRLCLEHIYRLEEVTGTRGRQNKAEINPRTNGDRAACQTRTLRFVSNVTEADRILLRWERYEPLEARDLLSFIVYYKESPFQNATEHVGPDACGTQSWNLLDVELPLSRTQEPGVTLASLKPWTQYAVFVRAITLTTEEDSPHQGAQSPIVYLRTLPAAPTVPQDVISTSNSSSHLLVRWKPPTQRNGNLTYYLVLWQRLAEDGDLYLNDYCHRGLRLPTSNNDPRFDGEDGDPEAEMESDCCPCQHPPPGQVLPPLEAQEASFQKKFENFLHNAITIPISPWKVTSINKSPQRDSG
Chain of Insulin receptor-related protein (Homo sapiens) (P14616 747-1297 limits assumed): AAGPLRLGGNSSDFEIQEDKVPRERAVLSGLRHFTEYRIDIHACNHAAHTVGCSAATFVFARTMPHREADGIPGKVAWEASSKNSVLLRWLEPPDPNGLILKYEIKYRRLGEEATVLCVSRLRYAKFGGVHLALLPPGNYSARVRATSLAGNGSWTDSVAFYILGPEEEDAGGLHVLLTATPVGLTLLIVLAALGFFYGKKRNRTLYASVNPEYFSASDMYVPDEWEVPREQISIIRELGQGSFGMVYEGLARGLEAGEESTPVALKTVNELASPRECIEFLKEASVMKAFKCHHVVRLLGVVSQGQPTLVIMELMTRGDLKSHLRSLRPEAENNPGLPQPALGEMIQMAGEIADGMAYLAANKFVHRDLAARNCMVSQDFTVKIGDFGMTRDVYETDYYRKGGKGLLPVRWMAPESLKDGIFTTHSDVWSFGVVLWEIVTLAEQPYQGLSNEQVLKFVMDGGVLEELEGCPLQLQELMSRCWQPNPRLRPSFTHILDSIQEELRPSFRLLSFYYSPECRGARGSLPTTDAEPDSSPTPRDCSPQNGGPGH

[33] = molecular target: Proto-oncogene tyrosine-protein kinase Src (Homo sapiens) (UniProt P12931); conditions: Compound concentration 100.0 nM
[34] = molecular target: Phosphatidylinositol 4-phosphate 5-kinase type-1 gamma (Homo sapiens) (UniProt O60331); conditions: Compound concentration 100.0 nM
[35] = test system: Epidermal growth factor receptor (Homo sapiens), P00533 [L858R]; conditions: Compound concentration 100.0 nM
[36] = molecular target: Serine/threonine-protein kinase PAK 3 (Homo sapiens) (UniProt O75914); conditions: Compound concentration 100.0 nM
Chain of Serine/threonine-protein kinase PAK 3 (Homo sapiens) (O75914 whole entry, looked up): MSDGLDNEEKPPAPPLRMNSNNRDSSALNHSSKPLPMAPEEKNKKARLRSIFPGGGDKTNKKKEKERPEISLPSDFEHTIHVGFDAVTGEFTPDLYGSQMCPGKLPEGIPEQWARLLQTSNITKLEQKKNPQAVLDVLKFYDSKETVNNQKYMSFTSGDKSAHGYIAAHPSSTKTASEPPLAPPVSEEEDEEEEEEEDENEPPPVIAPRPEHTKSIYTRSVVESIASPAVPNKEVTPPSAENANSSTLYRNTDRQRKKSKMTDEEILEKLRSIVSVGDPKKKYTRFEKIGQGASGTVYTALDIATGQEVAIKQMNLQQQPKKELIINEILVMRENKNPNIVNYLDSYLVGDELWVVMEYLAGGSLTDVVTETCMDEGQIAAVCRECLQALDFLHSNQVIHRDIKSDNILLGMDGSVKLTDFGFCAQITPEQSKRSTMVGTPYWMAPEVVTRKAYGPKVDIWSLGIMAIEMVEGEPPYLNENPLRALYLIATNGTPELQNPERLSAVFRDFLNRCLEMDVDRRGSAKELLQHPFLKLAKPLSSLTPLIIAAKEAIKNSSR

[37] = molecular target: Mitogen-activated protein kinase 10 (Homo sapiens) (UniProt P53779); conditions: Compound concentration 100.0 nM
[38] = molecular target: Mitogen-activated protein kinase 13 (Homo sapiens) (UniProt O15264); conditions: Compound concentration 100.0 nM
[39] = molecular target: Rhodopsin kinase GRK7 (Homo sapiens) (UniProt Q8WTQ7); conditions: Compound concentration 100.0 nM
[40] = molecular target: Tyrosine-protein kinase Lyn (Homo sapiens) (UniProt P07948); conditions: Compound concentration 100.0 nM
[41] = molecular target: Myosin-IIIa (Homo sapiens) (UniProt Q8NEV4); conditions: Compound concentration 100.0 nM
[42] = molecular target: Calcium/calmodulin-dependent protein kinase kinase 2 (Homo sapiens) (UniProt Q96RR4); conditions: Compound concentration 100.0 nM
[43] = molecular target: Activin receptor type-2A (Homo sapiens) (UniProt P27037); conditions: Compound concentration 100.0 nM
Rattus norvegicus = organism: Rattus norvegicus; conditions: Compound concentration 10.0 uM
[44] = molecular target: Activin receptor type-1 (Homo sapiens) (UniProt Q04771); conditions: Compound concentration 100.0 nM
Chain of Activin receptor type-1 (Homo sapiens) (Q04771 whole entry): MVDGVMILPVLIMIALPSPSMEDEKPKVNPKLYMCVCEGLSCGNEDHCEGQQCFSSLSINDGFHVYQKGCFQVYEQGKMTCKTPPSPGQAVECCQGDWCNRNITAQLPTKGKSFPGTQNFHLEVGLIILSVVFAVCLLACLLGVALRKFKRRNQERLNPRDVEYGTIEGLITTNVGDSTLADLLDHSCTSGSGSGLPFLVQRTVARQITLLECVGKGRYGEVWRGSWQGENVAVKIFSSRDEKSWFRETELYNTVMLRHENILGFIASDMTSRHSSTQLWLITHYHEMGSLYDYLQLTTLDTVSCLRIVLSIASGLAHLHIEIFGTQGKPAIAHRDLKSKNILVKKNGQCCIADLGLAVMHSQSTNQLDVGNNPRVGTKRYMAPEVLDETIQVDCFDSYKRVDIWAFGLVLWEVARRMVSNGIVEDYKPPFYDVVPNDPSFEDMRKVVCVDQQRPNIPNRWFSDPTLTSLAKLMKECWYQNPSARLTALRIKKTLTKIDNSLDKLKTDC

[45] = molecular target: Serine/threonine-protein kinase TAO3 (Homo sapiens) (UniProt Q9H2K8); conditions: Compound concentration 100.0 nM

Cn1nc(C(=O)NCc2ccc(C(=O)O)cc2)cc1-c1ccc2[nH]ccc2c1 [BI 4395]
residual activity [1]: 84% | residual activity [2]: 94% | residual activity [3]: 100% | residual activity [4]: 85% | residual activity [5]: 91% | residual activity [6]: 78% | residual activity [7]: 91% | residual activity [8]: 76% | residual activity [9]: 84% | residual activity [10]: 67% | residual activity [11]: 23% | residual activity [12]: 71% | residual activity [13]: 100% | residual activity [14]: 91% | residual activity [15]: 91% | residual activity [16]: 100% | residual activity [17]: 100% | residual activity [18]: 100% | residual activity [19]: 100% | residual activity [20]: 81% | residual activity [21]: 59% | residual activity [22]: 76% | residual activity [23]: 74% | residual activity [24]: 94% | residual activity [25]: 45% | residual activity [26]: 100% | residual activity [27]: 81% | residual activity [28]: 91% | residual activity [29]: 90% | residual activity [30]: 100% | residual activity [31]: 78% | residual activity [32]: 98% | residual activity [33]: 100% | residual activity [34]: 91% | residual activity [35]: 100% | residual activity [36]: 82% | residual activity [37]: 76% | residual activity [38]: 91% | residual activity [39]: 100% | residual activity [40]: 100% | residual activity [41]: 95% | residual activity [42]: 80% | residual activity [43]: 98% | inhibition (Rattus norvegicus): 6.39% | residual activity [44]: 99% | residual activity [45]: 83%

CCOC(=O)c1cc2cc(-c3cc(C(=O)NCc4ccc(C(=O)O)cc4)nn3C)ccc2[nH]1 [BI 4394]
residual activity [1]: 81% | residual activity [2]: 91% | residual activity [3]: 100% | residual activity [4]: 100% | residual activity [5]: 88% | residual activity [6]: 95% | residual activity [7]: 96% | residual activity [8]: 87% | residual activity [9]: 100% | residual activity [10]: 96% | residual activity [11]: 100% | residual activity [12]: 92% | residual activity [13]: 100% | residual activity [14]: 90% | residual activity [15]: 88% | residual activity [16]: 79% | residual activity [17]: 96% | residual activity [18]: 67% | residual activity [19]: 88% | residual activity [20]: 86% | residual activity [21]: 100% | residual activity [22]: 100% | residual activity [23]: 65% | residual activity [24]: 100% | residual activity [25]: 99% | residual activity [26]: 88% | residual activity [27]: 100% | residual activity [28]: 82% | residual activity [29]: 83% | residual activity [30]: 97% | residual activity [31]: 93% | residual activity [32]: 77% | residual activity [33]: 93% | residual activity [34]: 100% | residual activity [35]: 91% | residual activity [36]: 77% | residual activity [37]: 100% | residual activity [38]: 100% | residual activity [39]: 86% | residual activity [40]: 100% | residual activity [41]: 100% | residual activity [42]: 95% | residual activity [43]: 59% | inhibition (Rattus norvegicus): -1.91% | residual activity [44]: 84% | residual activity [45]: 85%
